Experimental data as given in US10633419B2, “Immunomodulators” (BRISTOL-MYERS SQUIBB COMPANY, priority 2014, dated 2020).
Starred links: 1 amine or outer side, 2 acyl side, 3 side chain; linkers in the order of their positions; H or OH if unused. Positions of bridges follow the written chain, without caps; N, C: chain ends. Non-standard residues stand in square brackets, D forms with d. Residues, ends and D or L forms follow the SMILES beside them. Groups on a side chain read outwards from the residue. *: point of attachment. X17 = COCCOCCOCCOCCOCCOCCOCCOCCOCCOCCOCCOCCOCCOCCOCCOCCOCCOCCOCCOCCOCCOCCOCCOCCOCCOCCOCCOCCOCCOCCOCCOCCOCCOCCOCCOCCOCCOCCOCCOCCOCCOCCOCCOCCOCCOCCOCCOCCOCCC(=O)*; εLys(α-Octadecanedioyl) = O=C(O)CCCCCCCCCCCCCCCCC(=O)N[C@@H](CCCCN*)C(=O)O; Trp(1-CH2COOH) = N[C@@H](Cc1cn(CC(=O)O)c2ccccc12)C(=O)O; X9 = O=C(O)CCCCCCCCCCCCCCCCC(=O)N[C@@H](CCN*)C(=O)O; Phe(3,4,5-F3) = N[C@@H](Cc1cc(F)c(F)c(F)c1)C(=O)O; C18 diacid = O=C(O)CCCCCCCCCCCCCCCCC(=O)*; γGlu = O=C(O)[C@H](CCC(=O)[*:2])N[*:1]; d(cisHyp) = O=C(O)[C@H]1C[C@@H](O)CN1; Hyp = O=C(O)[C@@H]1C[C@@H](O)CN1; NMeF = CN[C@@H](Cc1ccccc1)C(=O)O; NMeNle = CCCC[C@H](NC)C(=O)O; Pip = O=C(O)[C@@H]1CCCCN1; dPip = O=C(O)[C@H]1CCCCN1; NMeA = CN[C@@H](C)C(=O)O; Aun = NCCCCCCCCCCC(=O)O; Dab = NCC[C@H](N)C(=O)O; Dap = NC[C@H](N)C(=O)O

What follows are compounds tested against T1, PD-L1 (Homo sapiens, UniProt Q9NZQ7) (assay: PD-1/PD-L1 Homogenous Time-Resolved Fluorescence (HTRF) binding assay (PD-1-Ig/PD-L1-His)). Details: inhibition of PD-1-Ig binding to PD-L1-TVMV-His; value given as number; read-out: HTRF IC50.
T1 construct: hPDL1(19-239)-TVMV-His; made in house; host or cells: HEK293T
T1 sequence (Q9NZQ7 with tags, fused parts or gaps): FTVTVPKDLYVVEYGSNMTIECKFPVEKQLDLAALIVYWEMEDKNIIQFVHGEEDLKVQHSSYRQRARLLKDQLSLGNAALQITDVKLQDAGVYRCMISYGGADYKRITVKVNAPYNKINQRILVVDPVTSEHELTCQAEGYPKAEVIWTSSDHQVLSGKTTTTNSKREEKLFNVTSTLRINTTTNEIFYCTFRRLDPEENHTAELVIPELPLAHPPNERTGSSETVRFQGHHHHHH
Outline: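 HTRF competition in dPBS with 0.1% BSA and 0.05% Tween-20: 20 nM PD-1-Ig added after 15 min compound pre-incubation with 10 nM PD-L1-His, then another 15 min. Signal (665/620 nm) after 30 min with APC anti-His (20 nM) and Eu anti-Ig (1 nM).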

IC50 | Structure (SMILES)
6.3 nM | CCCC[C@H]1C(=O)N2C[C@H](O)C[C@@H]2C(=O)N[C@@H](CC(=O)O)C(=O)N[C@@H](C(C)C)C(=O)N(C)[C@@H](Cc2ccccc2)C(=O)N[C@@H](Cc2ccc(O)cc2)C(=O)N2CCCC[C@@H]2C(=O)N[C@@H](Cc2c[nH]c3ccccc23)C(=O)N[C@@H](Cc2ccc(O)cc2)C(=O)N[C@@H](CC(C)C)C(=O)N[C@H](C(=O)NCC(=O)NCC(=O)NCC(=O)N[C@@H](CCCCNC(=O)CCOCCOCCOCCOCCOCCOCCOCCOCCOCCOCCOCCOCCOCCOCCOCCOCCOCCOCCOCCOCCOCCOCCOCCOCCOCCOCCOCCOCCOCCOCCOCCOCCOCCOCCOCCOCCOCCOCCOCCOCCOCCOCCOCCOCCOCCOCCOCCOCCOC)C(N)=O)CSCC(=O)N[C@@H](Cc2cc(F)c(F)c(F)c2)C(=O)N(C)[C@@H](Cc2ccccc2)C(=O)N1C [Example 3625] ({CH2CO}-[Phe(3,4,5-F3)][NMeF][NMeNle][d(cisHyp)]DV[NMeF]Y[dPip]WYLCGGGK(X17)-NH2; thioether N-13)

Same assay, conditions: inhibition of PD-1-Ig binding to PD-L1-TVMV-His; value given as range class; read-out: HTRF IC50

Structure (SMILES) | IC50
CCCC[C@H]1C(=O)N(C)[C@@H](CCCC)C(=O)N[C@@H](CC(C)C)C(=O)N[C@H](C(=O)NCC(=O)N[C@@H](CCC(=O)NCC[C@H](NC(=O)CCCCCCCCCCCCCCCCC(=O)O)C(=O)O)C(=O)O)CSCC(=O)N[C@@H](Cc2ccc(O)cc2)C(=O)N2CCCC[C@H]2C(=O)N[C@@H](CC(N)=O)C(=O)N2CCC[C@H]2C(=O)N[C@@H](CN)C(=O)N[C@@H](CC(C)C)C(=O)N2C[C@H](O)C[C@H]2C(=O)N[C@@H](Cc2c[nH]c3ccccc23)C(=O)N[C@@H](CCN)C(=O)N[C@@H](Cc2cn(CC(=O)O)c3ccccc23)C(=O)N1C [Example 13143] ({CH2CO}-Y[Pip]NP[Dap]L[Hyp]W[Dab][Trp(1-CH2COOH)][NMeNle][NMeNle]LCGE(X9)-OH; thioether N-14) | 100 to 1600 nM
CCCC[C@H]1C(=O)N(C)[C@@H](CCCC)C(=O)N[C@@H](CC(C)C)C(=O)N[C@H](C(=O)NCC(=O)N[C@H](CC(=O)O)C(=O)NCC(=O)NCCCCCCCCCCC(=O)O)CSCC(=O)N[C@@H](Cc2ccc(O)cc2)C(=O)N(C)[C@@H](C)C(=O)N[C@@H](CC(N)=O)C(=O)N2CCC[C@H]2C(=O)N[C@@H](CN)C(=O)N[C@@H](CC(C)C)C(=O)N2C[C@H](O)C[C@H]2C(=O)N[C@@H](Cc2c[nH]c3ccccc23)C(=O)N[C@@H](CCN)C(=O)N[C@@H](Cc2cn(CC(=O)O)c3ccccc23)C(=O)N1C [Example 11100] ({CH2CO}-Y[NMeA]NP[Dap]L[Hyp]W[Dab][Trp(1-CH2COOH)][NMeNle][NMeNle]LCG[dD]G[Aun]-OH; thioether N-14) | 10 to 99 nM
CCCC[C@H]1C(=O)N(C)[C@@H](CCCC)C(=O)N[C@@H](CC(C)C)C(=O)N[C@H](C(=O)NCC(=O)NCCCC[C@H](NC(=O)CCCCCCCCCCCCCCCCC(=O)O)C(=O)O)CSCC(=O)N[C@@H](Cc2ccc(O)cc2)C(=O)N(C)[C@@H](C)C(=O)N[C@@H](CC(N)=O)C(=O)N2CCC[C@H]2C(=O)N[C@@H](CN)C(=O)N[C@@H](CC(C)C)C(=O)N2C[C@H](O)C[C@@H]2C(=O)N[C@@H](Cc2c[nH]c3ccccc23)C(=O)N[C@@H](CCN)C(=O)N[C@@H](Cc2cn(CC(=O)O)c3ccccc23)C(=O)N1C [Example 11141] ({CH2CO}-Y[NMeA]NP[Dap]L[d(cisHyp)]W[Dab][Trp(1-CH2COOH)][NMeNle][NMeNle]LCG-{εLys(α-Octadecanedioyl)}; thioether N-14) | 10 to 99 nM

Other lines, results leading:

IC50 | Structure (SMILES)
0.3 to 9.9 nM | CCCC[C@H]1C(=O)N(C)[C@@H](CCCC)C(=O)N[C@@H](CC(C)C)C(=O)N[C@H](C(=O)NCC(=O)N[C@@H](CNC(=O)CC[C@H](NC(=O)CCCCCCCCCCCCCCCCC(=O)O)C(=O)O)C(=O)O)CSCC(=O)N[C@@H](Cc2ccc(O)cc2)C(=O)N2CCCC[C@H]2C(=O)N[C@@H](CC(N)=O)C(=O)N2CCC[C@H]2C(=O)N[C@@H](CN)C(=O)N[C@@H](CC(C)C)C(=O)N2C[C@H](O)C[C@H]2C(=O)N[C@@H](Cc2c[nH]c3ccccc23)C(=O)N[C@@H](CCN)C(=O)N[C@@H](Cc2cn(CC(=O)O)c3ccccc23)C(=O)N1C [Example 13152] ({CH2CO}-Y[Pip]NP[Dap]L[Hyp]W[Dab][Trp(1-CH2COOH)][NMeNle][NMeNle]LCG[Dap]([γGlu-C18 diacid])-OH; thioether N-14)
0.3 to 9.9 nM | CCCC[C@H]1C(=O)N(C)[C@@H](CCCC)C(=O)N[C@@H](CC(C)C)C(=O)N[C@H](C(=O)NCC(=O)N[C@@H](Cc2cn(CCOCCOCCOCCOCCOCCOCCOCCOCCOCCOCCOCCNC(=O)CCCNC(=O)CCCCCCCCCCCCCCCCC(=O)O)nn2)C(=O)O)CSCC(=O)N[C@@H](Cc2ccc(O)cc2)C(=O)N(C)[C@@H](C)C(=O)N[C@@H](CC(N)=O)C(=O)N2CCC[C@H]2C(=O)N[C@@H](CN)C(=O)N[C@@H](CC(C)C)C(=O)N2C[C@H](O)C[C@H]2C(=O)N[C@@H](Cc2c[nH]c3ccccc23)C(=O)N[C@@H](CCN)C(=O)N[C@@H](Cc2cn(CC(=O)O)c3ccccc23)C(=O)N1C [Example 14125]
